test system: p-ERK in AsPC-1 cells (KRAS G12D mutation); test: Cell p-ERK assay (HTRF) in AsPC-1 cells; assay type: cell-based, human; conditions: AsPC-1 cells, 3 h compound incubation, HTRF p-ERK T202/Y204; read-out: AsPC-1 p-ERK IC50
Method in brief: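 In this cellular format, endogenous KRAS-mutant lines grown in RPMI-1640 plus 10% FBS received graded compound concentrations for 3 h at 37 °C. Lysates were incubated 4 h with the phospho-T202/Y204 ERK HTRF antibody pair, and percent inhibition relative to DMSO and blank wells was curve-fitted to give IC50.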

Row | SMILES | IC50 [nM]
1 | CCn1c(-c2cc(C#CCN(C)CCOC)cnc2[C@H](C)OC)c2c3cc(ccc31)-c1csc(n1)C[C@H](NC(=O)[C@H]1[C@H](C)[C@@H]1C)C(=O)N1CCC[C@H](N1)C(=O)OCC(C)(C)C2 (atropisomer, axis not shown; (Ra)) [Compound Z788] | 0.38
2 | CCn1c(-c2cc(C#CCN3C4CCC3COC4)cnc2[C@H](C)OC)c2c3cc(ccc31)-c1csc(n1)C[C@H](NC(=O)[C@H]1[C@H](C)[C@@H]1C)C(=O)N1CCC[C@H](N1)C(=O)OCC(C)(C)C2 (atropisomer, axis not shown; (Ra)) [Compound Z711, (1r,2R,3S)—N-((6^3S,4S,Z)—(Ra)-1^2-(5-(3-(3-oxa-8-azabicyclo[3.2.1]octan-8-yl)prop-1-yn-1-yl)-2-((S)-1-methoxyethyl)pyridin-3-yl)-1^1-ethyl-10,10-dimethyl-5,7-dioxo-6^1,6^2,6^3,6^4,6^5,6^6-hexahydro-1^1H-8-oxa-2(4,2)-thiazola-1(5,3)-indola-6(1,3)-pyridazinacycloundecaphane-4-yl)-2,3-dimethylcyclopropane-1-carboxamide] | 0.32

The next lines start with the values.

Row | IC50 [nM] | SMILES
3 | 0.08 | CCn1c(-c2cc(C#CCN3CCOC[C@H]3C)cnc2[C@H](C)OC)c2c3cc(ccc31)-c1csc(n1)C[C@H](NC(=O)[C@H]1[C@H](C)[C@@H]1C)C(=O)N1CCCC(N1)C(=O)OCC(C)(C)C2 (atropisomer, axis not shown; (Ra)) [Compound Z813]
4 | 0.58 | CCn1c(-c2cc(C#CCN3CCCOCC3)cnc2C(C)C)c2c3cc(ccc31)-c1csc(n1)C[C@H](NC(=O)[C@H]1[C@H](C)[C@@H]1C)C(=O)N1CCC[C@H](N1)C(=O)OCC(C)(C)C2 (atropisomer, axis not shown; (Sa)) [Compound Z811-2, (1r,2R,3S)—N-((6^3S,4S,Z)—(Sa)-1-(5-(3-(1,4-oxazepan-4-yl)prop-1-yn-1-yl)-2-isopropylpyridin-3-yl)-1^1-ethyl-10,10-dimethyl-5,7-dioxo-6^1,6^2,6^3,6^4,6^5,6^6-hexahydro-1^1H-8-oxa-2(4,2)-thiazola-1(5,3)-indola-6(1,3)-pyridazinacycloundecaphane-4-yl)-2,3-dimethylcyclopropane-1-carboxamide]
5 | 0.16 | CO[C@@H](C)c1ncc(C#CCN2CCCOCC2)cc1-c1c2c3cc(ccc3n1CC(F)(F)F)-c1csc(n1)C[C@H](NC(=O)[C@H]1[C@H](C)[C@@H]1C)C(=O)N1CCC[C@H](N1)C(=O)OCC(C)(C)C2 (atropisomer, axis not shown; (Ra)) [Compound Z700, N-((6^3S,4S,Z)-1^1-(2,2,2-trifluoroethyl)-(Ra)-1^2-(2-((S)-1-methoxyethyl)-(5-(3-(1,4-oxazepan-4-yl)prop-1-yn-1-yl))-pyridin-3-yl)-10,10-dimethyl-5,7-dioxo-6^1,6^2,6^3,6^4,6^5,6^6-hexahydro-1^1H-8-oxa-2(4,2)-thiazola-1(5,3)-indola-6(1,3)-pyridazinacycloundecaphane-4-yl)-2,3-dimethylcyclopropane-1-carboxamide]

same assay, conditions: Homo sapiens, ASPC1, 3 h, AsPC-1 cells, 3 h compound incubation, HTRF p-ERK T202/Y204; read-out: AsPC-1 p-ERK IC50

Row | SMILES | IC50 [nM]
6 | CCn1c(-c2cc(C#CCN3CCS(=O)(=O)CC3)cnc2[C@H](C)OC)c2c3cc(ccc31)-c1csc(n1)C[C@H](Nc1nnc3cc(C)ccn13)C(=O)N1CCC[C@H](N1)C(=O)OCC(C)(C)C2 (atropisomer, axis not shown; (Ra)) [Compound Z911, (6^3S,4S,Z)—(Ra)-1^2-(5-(3-(1,1-dioxidothiomorpholino)prop-1-yn-1-yl)-2-((S)-1-methoxyethyl)pyridin-3-yl)-1^1-ethyl-10,10-dimethyl-4-((7-methyl-[1,2,4]triazolo[4,3-a]pyridin-3-yl)amino)-6^1,6^2,6^3,6^4,6^5,6^6-hexahydro-1^1H-8-oxa-2(4,2)-thiazola-1(5,3)-indola-6(1.3)-pyridazinacycloundecaphane-5,7-dione] | 2.23
7 | CCO[C@@H](C)c1ncc(N2CCN(CCS(C)(=O)=O)CC2)cc1-c1c2c3cc(ccc3n1CC)-c1csc(n1)C[C@H](NC(=O)[C@H]1[C@H](C)[C@@H]1C)C(=O)N1CCC[C@H](N1)C(=O)OCC1(CC1)C2 (single isomer, unassigned) [Compound Z378-1] | 10.6
8 | CCn1c(-c2cc(C#CCN3CCCOCC3)cnc2[C@H](C)OC)c2c3cc(ccc31)-c1csc(n1)C[C@H](NC(=O)CC(C)C)C(=O)N1CCC[C@H](N1)C(=O)OCC(C)(C)C2 (single isomer, unassigned) [Compound Z803] | 0.85
9 | CCn1c(-c2cc(N3CCN4CC5(CC5)OC[C@@H]4C3)cnc2[C@H](C)OC)c2c3cc(ccc31)-c1csc(n1)C[C@H](NC(=O)[C@H]1[C@H](C)[C@@H]1C)C(=O)N1CCC[C@H](N1)C(=O)OCC1(CC1)C2 (atropisomer, axis not shown; (Ra)) [Compound Z13] | 2.24
10 | CCn1c(-c2cc(N3CCN(CCS(C)(=O)=O)CC3)cnc2[C@H](C)OC)c2c3cc(ccc31)-c1csc(n1)C[C@H](NC(=O)[C@H]1[C@H](C)[C@@H]1C)C(=O)N1CCC[C@H](N1)C(=O)OCC1(CC1)C2 (single isomer, unassigned) [Compound Z367] | 7.29
11 | CCn1c(-c2cc(C#CCN3CCCOCC3)cnc2[C@H](C)OC)c2c3cc(ccc31)-c1csc(n1)C[C@H](NC(=O)CC1CC1)C(=O)N1CCC[C@H](N1)C(=O)OCC(C)(C)C2 (atropisomer, axis not shown; (Ra)) [Compound Z915] | 1.26

The remaining lines, values ahead:

Row | IC50 [nM] | SMILES
12 | 0.08 | CCn1c(-c2cc(C#CCN3CCS(=O)(=O)CC3)cnc2[C@H](C)OC)c2c3cc(ccc31)-c1csc(n1)C[C@H](NC(=O)[C@H]1[C@H](C)[C@@H]1C)C(=O)N1CCC[C@H](N1)C(=O)OCC(C)(C)C2 (atropisomer, axis not shown; (Ra)) [Compound Z838, (1r,2R,3S)—N-((6^3S,4S,Z)—(Ra)-1^2-(5-(3-(1,1-dioxidothiomorpholino)prop-1-yn-1-yl)-2-((S)-1-methoxyethyl)pyridin-3-yl)-1^1-ethyl-10,10-dimethyl-5,7-dioxo-6^1,6^2,6^3,6^4,6^5,6^6-hexahydro-1^1H-8-oxa-2(4,2)-thiazola-1(5,3)-indola-6(1,3)-pyridazinacycloundecaphane-4-yl)-2,3-dimethylcyclopropane-1-carboxamide]
13 | 0.19 | CCn1c(-c2cc(C#CCN3CCN(C)C(=O)C3)cnc2[C@H](C)OC)c2c3cc(ccc31)-c1csc(n1)C[C@H](NC(=O)[C@H]1[C@H](C)[C@@H]1C)C(=O)N1CCC[C@H](N1)C(=O)OCC(C)(C)C2 (atropisomer, axis not shown; (Ra)) [Compound Z793]
14 | 0.16 | CCn1c(-c2cc(C#CCN3CCCOCC3)cnc2[C@H](C)OC)c2c3cc(ccc31)-c1csc(n1)C[C@H](NC(=O)[C@H]1[C@H](C)[C@@H]1C)C(=O)N1CCC[C@H](N1)C(=O)OCC(C)(C)C2 (single isomer, unassigned) [Compound Z504]
15 | 0.67 | CCn1c(-c2cc(C#CCN3CCC3)cnc2[C@H](C)OC)c2c3cc(ccc31)-c1csc(n1)C[C@H](NC(=O)[C@H]1[C@H](C)[C@@H]1C)C(=O)N1CCC[C@H](N1)C(=O)OCC(C)(C)C2 (single isomer, unassigned) [Compound Z554]
16 | 1.53 | CCn1c(-c2cc(C#CCN3CCC(C(F)(F)F)CC3)cnc2[C@H](C)OC)c2c3cc(ccc31)-c1csc(n1)C[C@H](NC(=O)[C@H]1[C@H](C)[C@@H]1C)C(=O)N1CCC[C@H](N1)C(=O)OCC(C)(C)C2 (atropisomer, axis not shown; (Ra)) [Compound Z778]
17 | 0.2 | CCn1c(-c2cc(C#CCN3CCCN(C)CC3)cnc2[C@H](C)OC)c2c3cc(ccc31)-c1csc(n1)C[C@H](NC(=O)[C@H]1[C@H](C)[C@@H]1C)C(=O)N1CCC[C@H](N1)C(=O)OCC(C)(C)C2 (atropisomer, axis not shown; (Ra)) [Compound Z802, (1r,2R,3S)—N-((6^3S,4S,Z)-1^2-(5-(3-(4-methyl-1,4-diaza-1-yl)prop-1-yn-1-yl)-(Ra)-2-((S)-1-methoxyethyl)pyridin-3-yl)-1^1-ethyl-10,10-dimethyl-5,7-dioxo-6^1,6^2,6^3,6^4,6^5,6^6-hexahydro-1^1H-8-oxa-2(4,2)-thiazola-1(5,3)-indola-6(1,3)-pyridazinacycloundecaphane-4-yl)-2,3-dimethylcyclopropane-1-carboxamide]
18 | 0.51 | CCn1c(-c2cc(C#CCN3CCCOCC3)cnc2[C@H](C)OC)c2c3cc(ccc31)-c1csc(n1)C[C@H](NC(=O)[C@H]1C[C@@H]1C)C(=O)N1CCC[C@H](N1)C(=O)OCC(C)(C)C2 (single isomer, unassigned) [Compound Z604]
19 | 0.39 | CCn1c(-c2cc(C#C[C@@H]3COCCN3C)cnc2[C@H](C)OC)c2c3cc(ccc31)-c1csc(n1)C[C@H](NC(=O)[C@H]1[C@H](C)[C@@H]1C)C(=O)N1CCC[C@H](N1)C(=O)OCC(C)(C)C2 (atropisomer, axis not shown; (Ra)) [Compound Z672, (1r,2R,3S)—N-((6^3S,4S,Z)-1^1-ethyl-(Ra)-1^2-(2-((S)-1-methoxyethyl)-5-(((R)-4-methylmorpholin-3-yl)ethynyl)pyridin-3-yl)-10,10-dimethyl-5,7-dioxo-6^1,6^2,6^3,6^4,6^5,6^6hexahydro-1^1H-8-oxa-2(4,2)-thiazola-1(5,3)-indola-6(1,3)-pyridazinacycloundecaphane-4-yl)-2,3-dimethylcyclopropane-1-carboxamide]

From patent US20260234165A1, “MACROCYCLIC COMPOUNDS, PREPARATION METHOD THEREFOR, AND USE THEREOF” (GENFLEET THERAPEUTICS (SHANGHAI) INC., priority 2004, published 2026)
